Data as given in patent US9765075B2, “Substituted bridged urea analogs as sirtuin modulators” (GLAXOSMITHKLINE LLC, priority 2013, dated 2017).
Read-outs that look alike come from different tables or passages of the source.

What was measured:
mini-hSIRT1 = assay: Inhibition of mini-hSIRT1 constructs compared with the full-length enzyme; assay type: biochemical, human
Method: Final concentrations of the PNC1/GDH coupling system components used were 20 units/mL bovine GDH (Sigma-Aldrich), 1 uM yeast PNC1, 3.4 mM α-ketoglutarate, and 220 μM NADH or NADPH. An extinction coefficient of 6.22 mM^−1 cm^−1 and a pathlength of 0.81 cm was used to convert the absorbance at 340 nm to product concentration for the 150 uL reactions used. […] Quenched reactions were diluted 5-fold with 1:1 acetonitrile:methanol and spun at 5,000×g for 10 minutes to precipitate protein before being analyzed with an Agilent RapidFire 200 High-Throughput Mass Spectrometry System (Agilent, Wakefield, Mass.) coupled to an ABSciex API 4000 mass spectrometer fitted with an electrospray ionization source. The p53-based Ac-p53(W5) (Ac-RHKK^AcW-NH2) and FOXO-3a 21-mer (Ac-[…]^Ac[…]-NH2) peptides were obtained from Biopeptide, Inc. Deacetylation assays used the Ac-p53(W5) substrate unless otherwise noted.
Substrate KM determinations were performed by varying one substrate concentration at a fixed, saturating concentration of the second substrate. SIRT1 activation and inhibition assays were run in reaction buffer with 0.05% BSA at 25° C. and analyzed using the OAcADPr assay. Enzyme and compound were pre-incubated for 20 minutes before addition of substrates. […]

SIRT1 = target: T1, SIRT1 (Homo sapiens, UniProt Q96EB6); assay: Trp mass spectrometry assay (SIRT1 activation); assay type: biochemical; conditions: for Emax: percent maximum fold activation of SIRT1, read-out: Tryp % Fold Act
T1 sequence (Q96EB6 1-747): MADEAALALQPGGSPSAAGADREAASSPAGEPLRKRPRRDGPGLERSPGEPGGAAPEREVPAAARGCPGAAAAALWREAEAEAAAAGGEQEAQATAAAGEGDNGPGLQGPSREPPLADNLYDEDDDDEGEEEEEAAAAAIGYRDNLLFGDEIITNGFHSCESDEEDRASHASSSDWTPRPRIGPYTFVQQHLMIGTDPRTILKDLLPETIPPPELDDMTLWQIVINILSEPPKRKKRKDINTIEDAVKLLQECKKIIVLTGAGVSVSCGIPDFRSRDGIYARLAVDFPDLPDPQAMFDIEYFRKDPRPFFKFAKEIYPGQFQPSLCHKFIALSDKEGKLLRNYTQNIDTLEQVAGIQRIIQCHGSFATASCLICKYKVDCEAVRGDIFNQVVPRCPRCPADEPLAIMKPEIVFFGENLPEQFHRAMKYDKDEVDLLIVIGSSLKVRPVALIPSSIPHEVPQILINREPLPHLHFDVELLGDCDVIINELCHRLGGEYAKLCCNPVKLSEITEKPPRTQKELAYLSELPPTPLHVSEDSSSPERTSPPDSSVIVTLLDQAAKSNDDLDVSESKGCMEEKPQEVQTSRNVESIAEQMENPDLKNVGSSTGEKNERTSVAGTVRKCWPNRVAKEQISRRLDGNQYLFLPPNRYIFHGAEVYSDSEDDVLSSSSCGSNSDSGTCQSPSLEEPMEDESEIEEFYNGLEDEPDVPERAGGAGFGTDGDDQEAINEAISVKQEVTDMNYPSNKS
How it was run: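 N-His-tagged SIRT1 (10 nM), expressed in E. coli, was incubated with 0.5 μM Ac-RHKK(Ac)W-NH2 peptide and 120 μM NAD+ for 25 min at 25 °C in HEPES pH 7.5 with […]. The reaction was stopped with formic acid and O-acetyl-ADP-ribose or deacetylated peptide was quantified by mass spectrometry. Results are given as EC1.5 and percent maximal activation relative to DMSO control.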

[1] = concentration of test compound that results in 150% activation of SIRT1, Trp peptide substrate

Row | Tryp AVG EC1.5 (μM) (SIRT1; [1]) | Emax (SIRT1; Trp peptide substrate) [%] | Tryp AVG EC1.5 (μM) (SIRT1; Trp mass spectrometry assay, EC1.5 = concentration of test compound that results in 150% activation of SIRT1) | Emax (SIRT1; Trp mass spectrometry assay) [%] | Compound | IC50 values, mini-hSIRT1 constructs versus full-length enzyme (mini-hSIRT1)
1 |  |  |  |  | NC(=O)c1cccnc1 [NAM, nicotinamide] | comparable
2 | A (EC1.5<1 μM) | ≥ 150 |  |  | O=C(Nc1ccncc1)N1c2nc(-c3ccnc(N4CC[C@H](F)C4)c3)ccc2N2CC[C@H]1C2 [Example 422] | 
3 | B (EC1.5 1-25 μM) | ≥ 150 |  |  | O=C(Nc1ccccn1)N1c2nc(-c3cccc(C(F)(F)F)c3F)ccc2N2CC[C@H]1C2 [Example 334] | 
4 |  |  | B (EC1.5 1-25 μM) | ≥ 150 | O=C(Nc1ccnc(F)c1)N1c2nc(C3CCCC(C(F)(F)F)C3)ccc2N2CC[C@H]1C2 (stereo partly shown) [Example 154] | 
5 | B (EC1.5 1-25 μM) | ≥ 150 |  |  | Cc1cncc(NC(=O)N2c3nc(N4CCCC(C(F)(F)F)C4)ccc3N3CCC[C@@H]2C3)c1 (stereo partly shown) [Example 303] | 
6 | C (EC1.5>25 μM) | ≥ 150 |  |  | Cc1ccncc1-c1ccc2c(n1)N(C(=O)Nc1nc(C)c(C)s1)[C@H]1CCCN2C1 [Example 508] | 
7 | A (EC1.5<1 μM) | ≥ 150 |  |  | O=C(Nc1cccc(-n2cncn2)c1)N1c2nc(-c3cccc(C(F)(F)F)c3)ccc2N2CC[C@H]1C2 [Example 581] | 
